Source: patent US8802597B2, “Herbicidal pyrimidines” (E I du Pont de Nemours and Company, priority 2003, dated 2014)

| SMILES | melting point [°C] |
| --- | --- |
| COC(=O)c1nc(C(C)C)nc(N)c1Br [Compound 3] | 107 to 109 |
| COC(=O)c1nc(C2CC2)nc(N)c1I [Compound 7] | 145 to 146 |
| Nc1nc(C2CC2)nc(C(=O)O)c1Br [Compound 8] | 160 to 162 |
| CCOC(=O)c1nc(-c2ccccc2)nc(N)c1Br [Compound 18] | 110 to 111 |
| Nc1nc(C2CC2)nc(CO)c1Br [Compound 21] | 182 to 185 |
